Like-named read-outs stand apart in the source and are kept apart here.

One series addresses ATR (Homo sapiens (Human), UniProt Q13535). Kind of series: ATR kinase inhibition assay (HTRF). To be noted: p53 substrate, ATP 150 nM. The series is classed as biochemical. The procedure: This experiment adopted Homogeneous time-resolved fluorescence technology (HTRF®) of Cisbio Company for assay.
Experiment method: buffers were prepared as follows:
Preparation of solutions of the test compounds: The example compounds shown in the table below were prepared into solutions using DMSO as solvent, the stock solution typically being 10 mM. The maximum starting concentration in this experiment was 3 μM, DMSO 3-fold serial dilutions for concentrations, the serially diluted solution was added to each well of the corresponding 384-well plate (geriner bio-one, Cat #784075) to give final concentrations of 3000, 1000, 333, 111, 37, 12.3, 4.12, 1.37, 0.457, 0.152 nM, respectively, and the corresponding amount of DMSO was added to the additional wells to be used as negative or positive control wells, respectively.
The enzyme and substrate were separately dissolved and diluted in two tubes with the buffer prepared above at the following concentrations:
5 μL of the ATR protein solution from tube A was added to the compound-containing wells and the negative control wells in the assay plates using an electric multichannel pipettor, and the same volume of the prepared buffer (medium only, no enzyme) was added to the positive control wells. The plates were centrifuged for one minute at 1000 rpm, and then placed in an incubator at 25° C. for 15 minutes. 5 μL of the substrate mix solution from tube B was added to the positive control well, negative control well and the compound-containing well of the assay plates in the same manner, centrifuged and incubated at 25° C. for 90 minutes.
During the reaction, after ATR phosphorylated the substrate p53, two antibodies were added. Among them, anti-phospho-p53-Eu, as an energy donor, can specifically bind to the phosphorylation site of p53, while anti-GST-d2, as an energy receptor, can specifically bind to the GST-tagged p53. Upon excitation by a laser with certain wavelength (the excitation wavelength in this experiment is 340 nm), the energy donor can emit emission light of 615 nm, and when the energy donor and the energy receptor are close enough in space (that is, two antibodies are connected to p53 at the same time), energy transfer can occur between the energy donor and the energy receptor, so that the energy receptor can emit emission light of 665 nm. The two emission lights were detected by a plate reader, and the ratio of the signals at 665 nm and 615 nm was calculated. The IC50 of the samples tested can be obtained by plotting and calculation.
10 μL per well of the detection solution was added to the positive control, negative control and compound wells of the assay plate using an electric multichannel pipette, centrifuged and incubated overnight at 4° C., and read with the plate reader Envision 2104.
Compound inhibition rate was calculated using interpolation. The mean values of the positive and negative controls were calculated respectively, and the following formula was used to calculate the inhibition rates of the compounds:
Inhibition rate Minimum response+(Compound concentration ^Curve slope)*(Maximum response−Minimum response)/(Compound concentration^Curve slope+Half inhibition concentration ^Curve slope)
The IC50 value of each compound to enzyme activity was obtained.

Another series concerns LOVO cells. Kind of series: Cell proliferation assay (CellTiter-Glo). Type of series: cell-based. To be noted: Homo sapiens, 96 hours. The procedure: The cell proliferation inhibition effect of the compound of the invention was tested using CellTiter-Glo™ cell viability assay kit. This kit uses luciferase as the detector. During the luminescence process, the luciferase requires the participation of ATP. CellTiter-Glo™ reagent was added to the cell culture medium, and the luminescence value was measured. The light signal is proportional to the amount of ATP present in the system, and ATP positively correlates with the number of viable cells present, thus the cell proliferation activity is measured.
Cell culture and seeding: LOVO cells in logarithmic growth phase (human colon carcinoma cells) (ATCC CCL-229) were harvested and counted using a platelet counter. Trypan blue exclusion method was used to detect the cell viability to ensure that the cell viability was above 90%. 90 μL of cell suspension (RPMI1640+10% fetal bovine serum) was added to a 96-well transparent flat-bottom black-wall plate (Thermo, 165305) respectively, and the cell concentration was adjusted to 3000/well/90 μl. Cells in the 96-well plate were incubated overnight at 37° C., 5% CO2 with 95% humidity (Thermo, Model 3100 Series).
Firstly, DMSO was used as the solvent to prepare 10 mM mother solution of the test compounds, and then PBS was used to dilute 100 times to prepare a solution of 10 times of final concentration, the highest concentration was 100 μM. 10 μL solution of the test compounds was added to each well of the 96 well plate inoculated with cells, namely the solution was further diluted 10 times to reach the final concentration of 10 μM. Starting from 10 μM, the final concentration of the test compound was 3-fold serially diluted, with 9 concentrations in total with 3 triplicates for each concentration. The 96 well plates with the test compounds and cells were incubated at 37° C., 5% CO2 and 95% humidity for 96 hours, and then CellTiter Glo analysis was performed.
CellTiter-Glo Reagents (CellTiter Glo R Luminescent Cell Viability Assay, Promega, G7572) were melted and the 96-well plates were equilibrated to room temperature for 30 minutes. An equal volume of CellTiter-Glo solution was added to each well, and the cells were lysed by shaking on the fixed orbit shaker for 5 minutes. The assay plates were left at room temperature for 20 minutes to stabilize the luminescence signal, and the luminescence signals were read using the SpectraMax multi-labeled microplate detector (MD, M3).
Data were analyzed using GraphPad Prism 7.0 software, fitted with non-linear S-curve regression to derive the dose-response curves, and IC50 values were calculated therefrom.
Cell survival rate (%)=(LumDrug to be tested−LumCulture medium control)/(LumCell control−LumCulture medium control)×100%

Series [1] in a line: Metabolic stability in mouse liver microsomes. Type of series: in vitro ADME, CD-1 mice. Conditions: for half-life at 1 μM: CD-1, 1 μM compound; for microsomal CLint at 1 μM: CD-1, read-out: CLint(mic). The procedure:
(§1) Drug-like Properties: Concepts, Structure Design and Methods: from ADME to Toxicity Optimization. […] Screen. […] After incubation for appropriate time (such as 5, 10, 20, 30 and 60 minutes), samples were collected, and an appropriate termination solution (glacial acetonitrile containing 200 ng/mL tolbutamide and 200 ng/mL labetalol (i.e. acetonitrile at 4° C.)) was added to stop the reaction. Sample treatment (n=1): each appropriate sample was added, vortexed and centrifuged at high speed. The supernatants were collected, and detected the substrate by HPLC-MS/MS. The peak area at the 0 min was set as 100%. The peak areas at other time points were converted to percentages of the remaining amount. The natural logarithms of the percentage of remaining amount at each time point was plotted against the incubation time, and the slope (−k) was calculated. Then, Clint (μL/min/mg) and half-life (T½, min) of the compounds were calculated following the equation: Inherent clearance rate (Clint)=(k*Volume of incubation solution)/Mass of liver microsomes.

Series [2] is described as follows: Metabolic stability in human liver microsomes. The series is classed as in vitro ADME. To be noted: for half-life at 1 μM: 1 μM compound; for microsomal CLint at 1 μM: read-out: CLint(mic). How it is done: as §1
In general terms: Liver microsomes are a subcellular fraction often used to study metabolism.

A short description of series [3]: Pharmacokinetic (PK) assay in mice. Type of series: in vivo. To be noted: CD-1 mice; for AUC(0-t): read-out: AUC0-24 h. How it is done: The PK of each compound was determined as follows: 6 CD-1 mice (obtained from Shanghai Lingchang Biotechnology Co., Ltd.) were divided into two groups, 3 mice in each group. […] Blood samples were collected from saphenous vein of lower leg in each group at 0, 0.083, 0.25, 0.5, 1, 2, 4, 6, 8 and 24 h after administration. Approximately 40 μL of the blood samples were collected in anticoagulant tubes containing EDTA-K2. Immediately after collection, the tubes were inverted at least 5 times to ensure adequate mixing, and then placed on ice. The blood samples collected at each time point were centrifuged at 4° C., 8000 rpm for 5 minutes to obtain plasma. Another 1.5 mL centrifuge tube was marked with the compound name, animal number, and time point, and the plasma was transferred to this tube. The plasma was stored at −80° C. until analysis.
Compound concentrations in plasma were determined by UPLC-MS/MS method, and the pharmacokinetic parameters were calculated by Phoenix WinNolin 6.4 pharmacokinetic software on the obtained data.

Chain of ATR (Q13535 whole entry): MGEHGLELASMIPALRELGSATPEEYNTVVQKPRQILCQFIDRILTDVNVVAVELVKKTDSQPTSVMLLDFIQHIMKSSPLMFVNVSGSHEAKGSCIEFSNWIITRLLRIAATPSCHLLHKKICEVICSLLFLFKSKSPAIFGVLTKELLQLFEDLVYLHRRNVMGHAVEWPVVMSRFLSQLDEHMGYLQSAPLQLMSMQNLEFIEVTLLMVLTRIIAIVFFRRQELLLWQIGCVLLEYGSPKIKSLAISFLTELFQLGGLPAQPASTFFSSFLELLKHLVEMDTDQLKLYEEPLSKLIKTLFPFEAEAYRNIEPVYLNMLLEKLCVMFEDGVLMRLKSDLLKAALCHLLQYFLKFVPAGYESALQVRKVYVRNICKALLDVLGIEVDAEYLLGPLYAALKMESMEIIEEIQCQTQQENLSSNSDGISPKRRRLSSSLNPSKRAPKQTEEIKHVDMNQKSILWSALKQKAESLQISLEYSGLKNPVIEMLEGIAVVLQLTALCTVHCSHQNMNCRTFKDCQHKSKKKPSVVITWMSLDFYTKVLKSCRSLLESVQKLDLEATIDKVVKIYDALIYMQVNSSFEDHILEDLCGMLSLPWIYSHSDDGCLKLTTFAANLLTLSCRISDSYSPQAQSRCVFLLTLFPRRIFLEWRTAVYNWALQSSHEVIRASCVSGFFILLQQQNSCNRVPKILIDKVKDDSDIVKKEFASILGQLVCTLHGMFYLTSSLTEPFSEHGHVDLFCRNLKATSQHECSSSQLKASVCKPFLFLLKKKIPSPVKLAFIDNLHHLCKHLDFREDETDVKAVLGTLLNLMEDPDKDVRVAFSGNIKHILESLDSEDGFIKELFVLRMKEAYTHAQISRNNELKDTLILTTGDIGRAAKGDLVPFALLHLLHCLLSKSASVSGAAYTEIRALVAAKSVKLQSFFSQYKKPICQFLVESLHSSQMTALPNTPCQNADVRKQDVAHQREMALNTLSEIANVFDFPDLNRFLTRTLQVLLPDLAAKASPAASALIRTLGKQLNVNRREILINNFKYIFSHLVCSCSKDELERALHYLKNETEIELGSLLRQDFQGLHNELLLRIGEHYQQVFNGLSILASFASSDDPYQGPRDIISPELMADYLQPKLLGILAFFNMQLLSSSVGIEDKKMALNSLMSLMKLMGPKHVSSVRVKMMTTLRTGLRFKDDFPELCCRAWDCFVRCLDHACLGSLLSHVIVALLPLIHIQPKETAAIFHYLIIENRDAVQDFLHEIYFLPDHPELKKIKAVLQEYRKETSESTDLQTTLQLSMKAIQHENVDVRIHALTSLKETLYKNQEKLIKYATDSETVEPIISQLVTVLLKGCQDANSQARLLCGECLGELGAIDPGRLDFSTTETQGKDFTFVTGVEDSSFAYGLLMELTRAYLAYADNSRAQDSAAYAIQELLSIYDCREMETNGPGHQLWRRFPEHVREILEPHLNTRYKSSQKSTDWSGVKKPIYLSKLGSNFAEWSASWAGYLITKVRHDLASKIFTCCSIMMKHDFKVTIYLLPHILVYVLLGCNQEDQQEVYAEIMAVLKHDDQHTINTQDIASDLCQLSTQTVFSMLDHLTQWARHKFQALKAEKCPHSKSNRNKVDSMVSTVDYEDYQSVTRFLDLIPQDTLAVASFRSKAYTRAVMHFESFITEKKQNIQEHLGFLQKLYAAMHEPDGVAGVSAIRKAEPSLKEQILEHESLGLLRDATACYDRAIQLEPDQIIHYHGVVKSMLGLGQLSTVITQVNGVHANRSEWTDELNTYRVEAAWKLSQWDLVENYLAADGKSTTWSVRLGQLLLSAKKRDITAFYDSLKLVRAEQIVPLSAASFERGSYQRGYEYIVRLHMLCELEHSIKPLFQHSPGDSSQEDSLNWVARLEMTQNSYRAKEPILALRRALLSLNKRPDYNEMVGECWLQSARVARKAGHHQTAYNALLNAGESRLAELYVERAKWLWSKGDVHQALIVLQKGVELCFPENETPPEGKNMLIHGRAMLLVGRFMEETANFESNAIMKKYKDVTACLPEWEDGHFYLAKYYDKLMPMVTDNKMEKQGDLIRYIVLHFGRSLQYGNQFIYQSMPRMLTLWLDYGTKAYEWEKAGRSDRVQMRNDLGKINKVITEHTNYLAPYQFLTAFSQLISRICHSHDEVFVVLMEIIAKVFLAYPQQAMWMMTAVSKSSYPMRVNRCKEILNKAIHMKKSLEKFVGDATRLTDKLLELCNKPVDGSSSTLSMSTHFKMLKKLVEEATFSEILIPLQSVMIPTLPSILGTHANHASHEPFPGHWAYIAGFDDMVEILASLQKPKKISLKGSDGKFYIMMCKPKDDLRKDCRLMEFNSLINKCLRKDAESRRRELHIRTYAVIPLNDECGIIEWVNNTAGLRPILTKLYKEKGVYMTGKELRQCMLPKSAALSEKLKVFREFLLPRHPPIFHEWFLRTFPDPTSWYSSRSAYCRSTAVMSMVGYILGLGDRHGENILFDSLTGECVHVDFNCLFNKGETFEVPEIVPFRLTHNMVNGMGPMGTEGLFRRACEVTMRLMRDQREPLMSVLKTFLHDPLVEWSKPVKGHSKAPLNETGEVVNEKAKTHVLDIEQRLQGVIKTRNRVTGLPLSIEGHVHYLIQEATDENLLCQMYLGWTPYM
Chain of ATR (Q8WXE1 whole entry partner): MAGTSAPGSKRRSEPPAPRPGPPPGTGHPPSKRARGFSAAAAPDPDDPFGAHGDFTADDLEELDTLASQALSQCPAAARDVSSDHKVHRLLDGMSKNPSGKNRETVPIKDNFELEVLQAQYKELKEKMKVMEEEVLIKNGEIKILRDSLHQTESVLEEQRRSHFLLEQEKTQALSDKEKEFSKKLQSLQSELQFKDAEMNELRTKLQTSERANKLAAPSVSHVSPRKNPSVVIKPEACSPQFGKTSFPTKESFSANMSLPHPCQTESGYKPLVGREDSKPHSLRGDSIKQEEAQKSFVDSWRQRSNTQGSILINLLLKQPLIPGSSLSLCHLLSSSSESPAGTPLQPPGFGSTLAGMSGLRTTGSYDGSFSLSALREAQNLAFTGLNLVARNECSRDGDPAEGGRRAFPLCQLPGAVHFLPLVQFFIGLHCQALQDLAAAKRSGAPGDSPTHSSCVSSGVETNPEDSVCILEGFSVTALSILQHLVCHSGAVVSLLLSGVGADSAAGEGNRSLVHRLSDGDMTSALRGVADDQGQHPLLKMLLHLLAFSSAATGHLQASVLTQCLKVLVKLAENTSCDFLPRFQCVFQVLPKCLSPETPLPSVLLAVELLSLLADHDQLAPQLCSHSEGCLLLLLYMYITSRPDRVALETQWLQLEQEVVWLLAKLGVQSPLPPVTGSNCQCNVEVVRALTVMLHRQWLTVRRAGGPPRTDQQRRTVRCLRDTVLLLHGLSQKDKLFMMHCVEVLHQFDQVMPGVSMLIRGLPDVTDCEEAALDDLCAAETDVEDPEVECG

As a reminder, the IC50 is the point on the concentration scale where inhibition reaches its midpoint. Lower therefore signals higher potency. For `OCC1COCCN1c1cc(N2C[C@H]3CC[C@@H](C2)O3)nc2c1cnn2-c1cc[nH]n1` (stereo partly drawn) [Example 35, (4-(6-((1R,5S)-8-oxa-3-azabicyclo[3.2.1]octan-3-yl)-1-(1H-pyrazol-3-yl)-1H-pyrazolo[3,4-b]pyridin-4-yl)morpholin-3-yl)methanol], the IC50 came out at 15.3 nM against ATR and 522 nM in the series on LOVO cells.
One may read the half-life as the time needed for the level to fall by half in the phase considered. Read a low half-life as fast loss. For `c1cc(-c2ncc3c(N4CC5CCC(C4)O5)cc(N4CC5CCC(C4)O5)nn23)n[nH]1` [Example 6, 3-(4-(8-oxa-3-azabicyclo[3.2.1]octan-3-yl)-7-(1H-pyrazol-3-yl)imidazo[1,5-b]pyridazin-2-yl)-8-oxa-3-azabicyclo[3.2.1]octane], in series [1], the half-life at 1 μM was 33.6 min, the microsomal CLint at 1 μM stood at 41.3 µL/min/mg and the “Remain % (T = 60 min)” value was 30.7%. Further, on ATR, it took 13.2 nM to reach half-maximal inhibition (IC50). In the series with LOVO cells, this molecule displayed an IC50 of 97 nM. In series [2], the half-life at 1 μM is greater than 145 min, the “Remain % (T = 60 min)” value was found to be 74.8% and the microsomal CLint at 1 μM was less than 9.6 µL/min/mg.
For the molecule `CC(=O)N1CCN(c2cc(N3C[C@H]4CC[C@@H](C3)O4)nc3c2cnn3-c2cc[nH]n2)[C@H](C)C1` [Example 34, 1-((R)-4-(6-((1R,5S)-8-oxa-3-azabicyclo[3.2.1]octan-3-yl)-1-(1H-pyrazol-3-yl)-1H-pyrazolo[3,4-b]pyridin-4-yl)-3-methylpiperazin-1-yl)ethan-1-one], the half-inhibitory concentration (IC50) against ATR worked out at 7.6 nM; in the series on LOVO cells, 424 nM.
The bioavailability is dose-corrected exposure relative to a reference, in per cent. Lower therefore signals little systemic uptake. As usually defined, the Cmax is the highest concentration seen after dosing. For the molecule `C[C@@H]1COCCN1c1cc(N2CC3CCC(C2)O3)nc2c1cnn2-c1cc[nH]n1` [Example 5, 3-(4-((R)-3-methylmorpholino)-1-(1H-pyrazol-3-yl)-1H-pyrazolo[3,4-b]pyridin-6-yl)-8-oxa-3-azabicyclo[3.2.1]octane], in series [1], the half-life at 1 μM turned out to be 67.5 min, the microsomal CLint at 1 μM is 20.5 µL/min/mg and the “Remain % (T = 60 min)” value stood at 56.6%. In series [3] (IV dose 1 mg/kg), the CL_obs is given as 6.15 mL/min/kg. The half-life in series [3] (mouse, plasma, IV dose 1 mg/kg) was 207 min. Also, in series [3] (mouse, plasma, IV dose 1 mg/kg, read-out: Vss), the Vd came to 0.75 L/kg. For the same molecule, in series [3] (mouse, plasma, Po dose 5 mg/kg), the half-life was 155 min. The bioavailability in series [3] (mouse, plasma, Po dose 5 mg/kg vs IV dose 1 mg/kg) stood at 69%. For the same molecule, in series [3] (mouse, IV dose 1 mg/kg, plasma), the C0 was 2180 ng/mL and the AUC(0-t) came out at 2700 ng·h/mL. In addition, in series [3] (mouse, Po dose 5 mg/kg, plasma), the peak concentration (Cmax) was 3020 ng/mL and the AUC(0-t) amounted to 9330 ng·h/mL. Moreover, at ATR, half-maximal inhibition (IC50) was put at 8.2 nM. In addition, in the series with LOVO cells, the IC50 amounted to 384 nM. Further, in series [2], the half-life at 1 μM is greater than 145 min, the “Remain % (T = 60 min)” value worked out at 77.1% and the microsomal CLint at 1 μM is less than 9.6 µL/min/mg.
Take `CC(=O)N1CCN(c2cc(N3C[C@H]4CC[C@@H](C3)O4)nn3c(-c4cc[nH]n4)ncc23)[C@H](C)C1` [Example 29, 1-((R)-4-(2-((1R,5S)-8-oxa-3-azabicyclo[3.2.1]octan-3-yl)-7-(1H-pyrazol-3-yl)imidazo[1,5-b]pyridazin-4-yl)-3-methylpiperazin-1-yl)ethan-1-one]: the IC50 at ATR amounted to 4.5 nM; in the series on LOVO cells, 488 nM.
The corresponding values for `CC1(C)COCCN1c1cc(N2CC3CCC(C2)O3)nc2c(-c3ccn[nH]3)cnn12` [Example 36, 3-(7-(3,3-dimethylmorpholino)-3-(1H-pyrazol-5-yl)pyrazolo[1,5-a]pyrimidin-5-yl)-8-oxa-3-azabicyclo[3.2.1]octane] are 6.2 nM and 148 nM.
The corresponding values for `C[C@@H]1COCCN1c1c(Cl)c(N2CC3CCC(C2)O3)nn2c(-c3cc[nH]n3)ncc12` [Example 4, 3-(3-chloro-4-((R)-3-methylmorpholino)-7-(1H-pyrazol-3-yl)imidazo[1,5-b]pyridazin-2-yl)-8-oxa-3-azabicyclo[3.2.1]octane] are 20.3 nM and 140 nM.
Taken in the same sequence, the figures for `C[C@@H]1CC(F)(F)CCN1c1cc(N2CC3CCC(C2)O3)nn2c(-c3cc[nH]n3)ncc12` [Example 31, 3-(4-((R)-4,4-difluoro-2-methylpiperidin-1-yl)-7-(1H-pyrazol-3-yl)imidazo[1,5-b]pyridazin-2-yl)-8-oxa-3-azabicyclo[3.2.1]octane] were 3.9 nM and 158 nM.
For the molecule `CC1(C)COCCN1c1cc(N2CC3CCC(C2)O3)nn2c(-c3cc[nH]n3)ncc12` [Example 20, 3-(4-(3,3-dimethylmorpholino)-7-(1H-pyrazol-3-yl)imidazo[1,5-b]pyridazin-2-yl)-8-oxa-3-azabicyclo[3.2.1]octane], the IC50 against ATR is 1.4 nM; with LOVO cells it was 39 nM.

Source of the values: patent US20240294550A1, “8-OXA-3-AZABICYCLO[3.2.1]OCTANE COMPOUNDS OR SALT THEREOF, AND PREPARATION METHOD AND USE THEREOF” (LITTDD MEDICINES LTD, priority 2021, published 2024).
